Experimental findings from patent US11491148B2, “Amide derivatives useful in the treatment of HBV infection or HBV-induced diseases” (Janssen Sciences Ireland Unlimited Company, priority 2019, dated 2022) are described below.

The structures appear in SMILES notation. Read-outs that look alike come from different tables or passages of the source.

One series deals with HBV. Put plainly: Anti-HBV activity, intracellular HBV DNA by real-time PCR (HBV-AVE-HepG2.117). It is filed as cell-based, Hepatitis B virus. The conditions noted are these: read-out: HBV-AVE-HepG2.117 EC50 (μM; mean value). The method, then: The anti HBV activity was measured using the HepG2.117 cell line, a stable, inducible HBV producing cell line, which replicates HBV in the absence of doxicycline (Tet-off system). The HepG2 cell line is available from ATCC®) under number HB-8065. Transfection of the HepG2 cell line can be as described in Sun and Nassal 2006 Journal of Hepatology 45 (2006) 636-645 “Stable HepG2- and Huh7-based human hepatoma cell lines for efficient regulated expression of infectious hepatitis B virus”.
For the antiviral assay, HBV replication was induced, followed by a treatment with serially diluted compound in 96-well plates. After 3 days of treatment, the antiviral activity was determined by quantification of intracellular HBV DNA using real-time PCR and an HBV specific primer set and probe.
In general terms: Real-time PCR tracks product formation cycle by cycle.

For a further series, the system named is HepG2.117 cells. As to the kind of experiment: Cytotoxicity, ATPlite cell viability (TOX-HepG2.117). It is filed as cell-based, human. The method, then: (§1) Cytotoxicity of the compounds was tested using HepG2 or HepG2.117 cells, incubated for 3 days in the presence of compounds. The viability of the cells was assessed using the Perkin Elmer ATPlite Luminescence Assay System.”
(Cellular ATP, detected with luciferase, serves as a proxy for viable cell number.)

Test in series [1]: as above
The series is classed as cell-based, human. As to conditions: human; HepG2.117 cells, incubated for 3 days, ATPlite, mean value. The method, then:
as §1

The mark [2] stands for this setting: HepG2.117 cell line, 3 days of treatment, intracellular HBV DNA, mean value.
Setting [3] is: Hepatitis B virus, HepG2.117, 72 h, HepG2.117 cell line, 3 days of treatment, intracellular HBV DNA, mean value.

As usually defined, the EC50 is the concentration that produces a half-maximal response. One may read the CC50 as the concentration that lowers cell viability or growth by half.

As for `C[C@H]1[C@H](C(=O)Nc2cc(F)c(F)c(F)c2)CCN1C(=O)C(=O)NC1(c2c[nH]nn2)CC(F)(F)C1` [C3′], the concentration giving a half-maximal response (EC50) with HBV (setting [2]) was above 2.5 µM. For the same molecule, the CC50 in the series with HepG2.117 cells is above 50000 nM.
In the same order, the values of `C[C@H]1[C@H](C(=O)Nc2ccc(F)c(C#N)c2)CCN1C(=O)C(=O)NC1(c2c[nH]nn2)CC(F)(F)C1` [C6′] are 2.91 µM and above 50000 nM.
On to `C[C@H]1[C@@H](C(=O)Nc2cc(F)c(F)c(Cl)c2)CCN1C(=O)C(=O)NC1(c2c[nH]nn2)CC(F)(F)C1` [C16], for which the EC50 with HBV (setting [3]) amounted to 0.006 µM. Besides, the CC50 at 3 days in series [1] was above 50 µM.
In the same order, the values of `C[C@H]1[C@@H](C(=O)Nc2ccc(F)c(Cl)c2F)CCN1C(=O)C(=O)NC1(c2c[nH]nn2)CC(F)(F)C1` [C17] are 0.01 µM and above 50 µM.
On the same counts, the results for `C[C@H]1[C@@H](C(=O)Nc2ccc(F)c(C(F)(F)F)c2)CCN1C(=O)C(=O)NC1(c2c[nH]nn2)CC(F)(F)C1` [C18] are 0.012 µM and above 50 µM.
Regarding `C[C@H]1C[C@H](C(=O)Nc2cc(F)c(F)c(F)c2)CN1C(=O)C(=O)NC1(c2c[nH]nn2)CC(F)(F)C1` [C19], the half-maximal effective concentration (EC50) with HBV (setting [3]) worked out at 0.019 µM. In series [1], this molecule gave a CC50 at 3 days above 50 µM.
As for `C[C@H]1[C@@H](C(=O)Nc2ccc(F)c(Cl)c2)CCN1C(=O)C(=O)NC1(c2c[nH]nn2)CC(F)(F)C1` [C20], the concentration for a half-maximal effect (EC50) in the series on HBV (setting [3]) turned out to be 0.012 µM. The molecule also showed a CC50 at 3 days in series [1] above 50 µM.
As to `C[C@H]1[C@@H](C(=O)Nc2cc(F)c(F)c(Br)c2)CCN1C(=O)C(=O)NC1(c2c[nH]nn2)CC(F)(F)C1` [C21, (2S,3S)—N-(3-bromo-4,5-difluorophenyl)-1-(2-((3,3-difluoro-1-(1H-1,2,3-triazol-4-yl)cyclobutyl)amino)-2-oxoacetyl)-2-methylpyrrolidine-3-carboxamide], the EC50 in the series with HBV (Hepatitis B virus, HepG2.117, 72 h) amounted to 0.012 µM. The molecule also returned a CC50 at 3 days in series [1] above 50 µM.
On to `C[C@H]1[C@@H](C(=O)Nc2ccc(F)c(F)c2F)CCN1C(=O)C(=O)NC1(c2c[nH]nn2)CC(F)(F)C1` [C22], for which the EC50 in the series on HBV (setting [3]) was found to be 0.026 µM. The same molecule displayed a 50% cytotoxic concentration (CC50) at 3 days in series [1] above 50 µM.
In the same order, the values of `Cc1c(F)ccc(NC(=O)[C@H]2CCN(C(=O)C(=O)NC3(c4c[nH]nn4)CC(F)(F)C3)[C@H]2C)c1F` [C23] are 0.016 µM and above 50 µM.
On the same counts, the results for `Cc1cc(NC(=O)[C@H]2CCN(C(=O)C(=O)NC3(c4c[nH]nn4)CC(F)(F)C3)[C@H]2C)cc(Cl)c1F` [C24] are 0.012 µM and above 50 µM.
On the same counts, the results for `C[C@H]1[C@@H](C(=O)Nc2cc(F)c(F)c(F)c2)CCN1C(=O)C(=O)NC1(c2nn[nH]c2Cl)CC(F)(F)C1` [C26] are 0.176 µM and above 50 µM.
With `Cc1cc(NC(=O)[C@H]2CCN(C(=O)C(=O)NC3(c4c[nH]nn4)CC(F)(F)C3)[C@H]2C)cc(F)c1F` [C27], the EC50 with HBV (setting [3]) was determined as 0.012 µM. Further, the CC50 at 3 days in series [1] is above 50 µM.
On the same counts, the results for `C[C@H]1C[C@H](C(=O)Nc2cc(F)c(F)c(F)c2)[C@H](C)N1C(=O)C(=O)NC1(c2c[nH]nn2)CC(F)(F)C1` [C35] are 0.011 µM and above 50 µM.
As to `C[C@H]1C[C@H](C(=O)Nc2cc(F)c(F)c(F)c2)[C@H](C)N1C(=O)C(=O)NC(CC(F)(F)F)c1c[nH]nn1` (stereo partly drawn) [C36], the EC50 in the series on HBV (setting [3]) was below 0.01 µM. The same molecule had a CC50 at 3 days in series [1] above 50 µM.
In the same order, the values of `Cc1[nH]nnc1C1(NC(=O)C(=O)N2CC[C@H](C(=O)Nc3cc(F)c(F)c(F)c3)[C@@H]2C)CC(F)(F)C1` [C38] are 0.012 µM and above 50 µM.
On the same counts, the results for `C[C@H]1[C@@H](C(=O)Nc2cc(F)c(F)c(F)c2)CCN1C(=O)C(=O)N[C@]1(c2c[nH]nn2)C[C@H](C(F)F)C1` [C39c] are 0.062 µM and above 50 µM.
On the same counts, the results for `C[C@H]1[C@@H](C(=O)Nc2cc(F)c(F)c(F)c2)CCN1C(=O)C(=O)N[C@]1(c2c[nH]nn2)C[C@@H](C(F)F)C1` [C39t] are 0.033 µM and above 50 µM.
